Experimental data taken from the supplement of paper PMC11451515.

Tested on: SEM cells
Experiment: cell viability relative to DMSO control; higher = less cytotoxic
Conditions: 48 h
Summary of the method: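 Three leukemia lines were tested: NOMO1 and SEM at 500 cells/well and P12-Ichikawa at 1000 cells/well. Each was adapted for at least four passages in each medium and seeded in 5 μl in 1536-well plates, and library compounds in DMSO were pin-dosed from 47 μM to 0.79 nM in 11 threefold steps. After 48 h at 37°C, CellTiter-Glo One luminescence was read. Viability is a percentage relative to DMSO wells on each plate, with cell-free wells as background.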

[1] = HPLM + 10% dialyzed FBS, 0.000781 µM
[2] = HPLM + 10% dialyzed FBS, 0.00234 µM
[3] = HPLM + 10% dialyzed FBS, 0.00702 µM
[4] = HPLM + 10% dialyzed FBS, 0.0211 µM
[5] = HPLM + 10% dialyzed FBS, 0.0632 µM
[6] = HPLM + 10% dialyzed FBS, 0.19 µM
[7] = HPLM + 10% dialyzed FBS, 0.569 µM
[8] = HPLM + 10% dialyzed FBS, 1.71 µM
[9] = HPLM + 10% dialyzed FBS, 5.12 µM
[10] = HPLM + 10% dialyzed FBS, 15.4 µM
[11] = HPLM + 10% dialyzed FBS, 46.1 µM
[12] = RPMI 5 mM glucose + 10% FBS, 0.000781 µM
[13] = RPMI 5 mM glucose + 10% FBS, 0.00234 µM
[14] = RPMI 5 mM glucose + 10% FBS, 0.00702 µM
[15] = RPMI 5 mM glucose + 10% FBS, 0.0211 µM
[16] = RPMI 5 mM glucose + 10% FBS, 0.0632 µM
[17] = RPMI 5 mM glucose + 10% FBS, 0.19 µM
[18] = RPMI 5 mM glucose + 10% FBS, 0.569 µM
[19] = RPMI 5 mM glucose + 10% FBS, 1.71 µM
[20] = RPMI 5 mM glucose + 10% FBS, 5.12 µM
[21] = RPMI 5 mM glucose + 10% FBS, 15.4 µM
[22] = RPMI 5 mM glucose + 10% FBS, 46.1 µM
[23] = RPMI 5 mM glucose + 10% dialyzed FBS, 0.000781 µM
[24] = RPMI 5 mM glucose + 10% dialyzed FBS, 0.00234 µM
[25] = RPMI 5 mM glucose + 10% dialyzed FBS, 0.00702 µM
[26] = RPMI 5 mM glucose + 10% dialyzed FBS, 0.0211 µM
[27] = RPMI 5 mM glucose + 10% dialyzed FBS, 0.0632 µM
[28] = RPMI 5 mM glucose + 10% dialyzed FBS, 0.19 µM
[29] = RPMI 5 mM glucose + 10% dialyzed FBS, 0.569 µM
[30] = RPMI 5 mM glucose + 10% dialyzed FBS, 1.71 µM
[31] = RPMI 5 mM glucose + 10% dialyzed FBS, 5.12 µM
[32] = RPMI 5 mM glucose + 10% dialyzed FBS, 15.4 µM
[33] = RPMI 5 mM glucose + 10% dialyzed FBS, 46.1 µM

SMILES | cell viability [1] [%] | cell viability [2] [%] | cell viability [3] [%] | cell viability [4] [%] | cell viability [5] [%] | cell viability [6] [%] | cell viability [7] [%] | cell viability [8] [%] | cell viability [9] [%] | cell viability [10] [%] | cell viability [11] [%] | cell viability [12] [%] | cell viability [13] [%] | cell viability [14] [%] | cell viability [15] [%] | cell viability [16] [%] | cell viability [17] [%] | cell viability [18] [%] | cell viability [19] [%] | cell viability [20] [%] | cell viability [21] [%] | cell viability [22] [%] | cell viability [23] [%] | cell viability [24] [%] | cell viability [25] [%] | cell viability [26] [%] | cell viability [27] [%] | cell viability [28] [%] | cell viability [29] [%] | cell viability [30] [%] | cell viability [31] [%] | cell viability [32] [%] | cell viability [33] [%]
NC(=O)OCC(COC(N)=O)c1ccccc1 | 91 | 99.6 | 102 | 87.3 | 101 | 86.1 | 103 | 104 | 92.8 | 91 | 90.6 | 119 | 121 | 104 | 119 | 113 | 113 | 102 | 115 | 99.8 | 117 | 105 | 99.7 | 107 | 99.4 | 115 | 111 | 99.9 | 109 | 99 | 97.9 | 101 | 105
C[C@@]1(C(=O)Nc2ccc(F)nc2)CCCN1c1nc(Nc2cc(C3CC3)[nH]n2)c2cccn2n1 | 90.8 | 98.6 | 106 | 97.2 | 101 | 98.8 | 81.9 | 103 | 30.6 | 21.4 | 9.04 | 56.6 | 68.8 | 64.6 | 70.6 | 72.6 | 77.2 | 66.1 | 60.1 | 10.9 | 8.82 | 2.55 | 95.4 | 89.5 | 102 | 107 | 112 | 92.3 | 104 | 96.5 | 18.8 | 16.4 | 6.22
